Here are results for three compounds from US20170087109A1, “COMPOSITIONS AND METHODS FOR TREATING BLACKHEADS” (Johnson & Johnson Consumer Inc., priority 2015, published 2017).

This test in a line: Blackhead dissolution test (extracted blackheads submerged in test material, graded by expert inspection). Details: species or system human. The conditions noted are these: blackhead submerged in approximately 100 microliters test material for 24 hours at room temperature, no agitation; 1 = not dissolved, 7 = completely dissolved. As for the experimental part:
A series of compounds and compositions were tested for their ability to dissolve blackheads as follows.
The blackheads were extracted from human volunteers using a comedone extracator. They were placed in a 24 or 96 well plate and submerged into approximately 100 microliters of each test material listed in Table 1 for 24 hours at room temperature ([…]). Gray color cards (GretagMacbeth ColorChecker™ Color Rendition Chart-Neutral 8 (0.23) CC20) were used underneath and measurements were made using a WILD M10 microscope at 40x, no agitation. The plates were covered with parafilm to avoid evaporation, and each test solution was removed at 24 hours and allowed to dry overnight. The amount of blackhead dissolved was graded by expert inspection on a scale from 1-7, 1 being not dissolved, and 7 being completely dissolved as shown in Table 1.
In the case of `[Na+].[OH-]` [0.1M NaOH, NaOH, reference compound], the “Outcome at 24 hours (amount of blackhead dissolved, grade on scale 1-7)” value is 4.33 ± 0.58.
With `CCCCCCCCCCCCCC(=O)O` [10% Myristic acid in KOH, Myristic acid], the “Outcome at 24 hours (amount of blackhead dissolved, grade on scale 1-7)” value is 6.00 ± 0.01.
For `CCCCCCCC/C=C\CCCCCCCC(=O)O` [10% Oleic acid in KOH, Oleic acid] the value was 7.00 ± 0.01.
